Reference: patent US10716773B2, “Compositions comprising 15-HEPE and methods of treating or preventing cancer and neurologic disease” (Afimmune Limited, priority 2015, dated 2020)
Several values for one entry are separate records, joined by “and”; a condition that tells them apart may be missing. Equal entries are not always repeated.

What was measured:
[1] = system: normal human dermal fibroblasts (NHDF); experiment: MTT reduction assay and observation of the cell layers: viability of fibroblasts after 48 hours of incubation; assay type: cell-based; conditions: for Visability (%): single replicates
Method: Normal human dermal fibroblasts (NHDF) were used at the 8th passage. Cells were cultured at 37° C., 5% CO2 in DMEM supplemented with L-glutamine 2 mM, 50 U/ml Penicillin, 50 μg/ml Streptomycin and 10% Foetal calf serum (FCS).

caspase-3/7 = experiment: Staurosporine-induced caspase-3/7 activity in NHDF, measured in cell lysates with fluorogenic substrate Ac-DEVD-AMC; assay type: cell-based, human; conditions: for Caspase-3/7 activity (Fluorescence 380 nm/440 nm) / Caspase-3/7 activity - Background (Fluorescence 380 nm/440 nm) / Caspese-3/7 activity/proteins: single replicates
Method: The potential inhibitory effect of compounds 15(S)-HEPE EE and EPA EE was evaluated on staurosporine-induced caspase activation in normal human dermal fibroblasts (NHDF). […] Normal human dermal fibroblasts (NHDF) were used at the 8th passage. […] Fibroblasts were seeded in 24-well plates and cultured for 24 hours in culture medium. The medium was then removed and replaced by assay medium containing or not (control) the test compounds and cells were pre-incubated for 24 hours. […] The cells were then incubated for 24 hours. Non-stimulated controls (without inducer) were performed in parallel. All experimental conditions were performed in n=3. […] Enzyme activity assay and protein quantification assay were performed in separated plates due to the fact that DTT used in the lysis buffer for caspase activity interferes with protein quantification. […] Lysis buffer: HEPES buffer (pH 7.4) containing EDTA, Triton X-100, NP-40 and DTT Assay Buffer: HEPES buffer (pH 7.4) containing NaCl, EDTA, NP-40, glycerol and DTT Substrate: Ac-DEVD-AMC, tested at 10 μM (stock solution at 1.5 mM in DMSO) Reference inhibitor: […] Ac-DEVD-AMC is a synthetic tetrapeptide fluorogenic substrate for caspase-3 and caspase-7 and contains the amino acid sequence of the PARP cleavage site at […]. […] Enzymes cleave the tetrapeptide between D and AMC resulting in the release of fluorogenic AMC, which can be quantified with a spectrofluorometer. […] In parallel, an additional control (assay buffer containing the substrate) was also performed to determine the background signal. At the end of incubation, the fluorescence intensity emitted by the reaction product (cleaved Ac-DEVD-AMC) was measured at wavelengths λex 380 nm and λem 440 nm using a spectrofluorimeter (SPECTRAmax® Gemini, Molecular Devices).

[2] = 0.001 μg/ml, staurosporine-stimulated NHDF
[3] = 0.001 μg/ml, staurosporine-stimulated NHDF, listed as 16(8)-HE PE EE
[4] = 0.01 μg/ml, staurosporine-stimulated NHDF
[5] = 0.01 μg/ml, staurosporine-stimulated NHDF, listed as 16(8)-HE PE EE
[6] = 0.1 μg/ml, staurosporine-stimulated NHDF
[7] = 0.1 μg/ml, staurosporine-stimulated NHDF, listed as 16(8)-HE PE EE
[8] = 1 μg/ml, staurosporine-stimulated NHDF
[9] = 1 μg/ml, staurosporine-stimulated NHDF, listed as 16(8)-HE PE EE
[10] = 10 μg/ml, staurosporine-stimulated NHDF
[11] = 10 μg/ml, staurosporine-stimulated NHDF, listed as 16(8)-HE PE EE
[12] = 100 μg/ml, staurosporine-stimulated NHDF
[13] = 100 μg/ml, staurosporine-stimulated NHDF, listed as 16(8)-HE PE EE
[14] = 0.1 μm, inhibitor added in the reaction mix of stimulated control lysate
[15] = 0.1 μm, inhibitor added in the reaction mix of stimulated control lysate, listed as Ao-DEVO-CHO

CC/C=C\C[C@H](O)/C=C/C=C\C/C=C\C/C=C\CCCC(=O)OCC [15(S)-HEPE EE]
Visability (%) Mean ([1]; 0.001 μg/ml): 98%
Visability (%) ([1]; 0.001 μg/ml): 99% and 97% and 98%
Visability (%) Mean ([1]; 0.01 μg/ml): 96%
Visability (%) ([1]; 0.01 μg/ml): 90% and 100% and 98%
Visability (%) Mean ([1]; 0.1 μg/ml): 97%
Visability (%) ([1]; 0.1 μg/ml): 99% and 96% and 98%
Visability (%) Mean ([1]; 1 μg/ml): 97%
Visability (%) ([1]; 1 μg/ml): 96% (2×) and 97%
Visability (%) Mean ([1]; 10 μg/ml): 101%
Visability (%) ([1]; 10 μg/ml): 100% and 102% and 101%
Visability (%) Mean ([1]; 30 μg/ml): 99%
Visability (%) ([1]; 30 μg/ml): 103% and 98% and 96%
Visability (%) Mean ([1]; 100 μg/ml): 104%
Visability (%) ([1]; 100 μg/ml): 103% and 105% and 104%
Visability (%) Mean ([1]; 300 μg/ml): 100%
Visability (%) ([1]; 300 μg/ml): 98% and 105% and 97%
% inhibition (caspase-3/7; [2]): −37%
% stimulated control (caspase-3/7; [2]): 134%
Normalized data: Mean (caspase-3/7 activity/proteins) (caspase-3/7; [2]): 114767 AU/mg
Caspase-3/7 activity (Fluorescence 380 nm/440 nm) (caspase-3/7; [3]): 1809 AU and 1753 AU and 1686 AU
Caspase-3/7 activity - Background (Fluorescence 380 nm/440 nm) (caspase-3/7; [3]): 1479 AU and 1423 AU and 1396 AU
Caspese-3/7 activity/proteins (caspase-3/7; [3]): 109076 AU/mg and 129611 AU/mg and 105615 AU/mg
% inhibition (caspase-3/7; [4]): −6%
% stimulated control (caspase-3/7; [4]): 106%
Normalized data: Mean (caspase-3/7 activity/proteins) (caspase-3/7; [4]): 90306 AU/mg
Caspase-3/7 activity (Fluorescence 380 nm/440 nm) (caspase-3/7; [5]): 1495 AU and 1587 AU and 1789 AU
Caspase-3/7 activity - Background (Fluorescence 380 nm/440 nm) (caspase-3/7; [5]): 1166 AU and 1258 AU and 1459 AU
Caspese-3/7 activity/proteins (caspase-3/7; [5]): 81085 AU/mg and 89757 AU/mg and 100075 AU/mg
% inhibition (caspase-3/7; [6]): 4%
% stimulated control (caspase-3/7; [6]): 98%
Normalized data: Mean (caspase-3/7 activity/proteins) (caspase-3/7; [6]): 82485 AU/mg
Caspase-3/7 activity (Fluorescence 380 nm/440 nm) (caspase-3/7; [7]): 1468 AU and 1697 AU and 1154 AU
Caspase-3/7 activity - Background (Fluorescence 380 nm/440 nm) (caspase-3/7; [7]): 1139 AU and 1367 AU and 825 AU
Caspese-3/7 activity/proteins (caspase-3/7; [7]): 81102 AU/mg and 109799 AU/mg and 56654 AU/mg
% inhibition (caspase-3/7; [8]): −9%
% stimulated control (caspase-3/7; [8]): 108%
Normalized data: Mean (caspase-3/7 activity/proteins) (caspase-3/7; [8]): 93200 AU/mg
Caspase-3/7 activity (Fluorescence 380 nm/440 nm) (caspase-3/7; [9]): 1536 AU and 1600 AU and 1735 AU
Caspase-3/7 activity - Background (Fluorescence 380 nm/440 nm) (caspase-3/7; [9]): 1206 AU and 1270 AU and 1406 AU
Caspese-3/7 activity/proteins (caspase-3/7; [9]): 86474 AU/mg and 94481 AU/mg and 93645 AU/mg
% inhibition (caspase-3/7; [10]): 8%
% stimulated control (caspase-3/7; [10]): 93%
Normalized data: Mean (caspase-3/7 activity/proteins) (caspase-3/7; [10]): 80078 AU/mg
Caspase-3/7 activity (Fluorescence 380 nm/440 nm) (caspase-3/7; [11]): 1439 AU and 1551 AU and 1514 AU
Caspase-3/7 activity - Background (Fluorescence 380 nm/440 nm) (caspase-3/7; [11]): 1109 AU and 1221 AU and 1184 AU
Caspese-3/7 activity/proteins (caspase-3/7; [11]): 76241 AU/mg and 81395 AU/mg and 82597 AU/mg
% inhibition (caspase-3/7; [12]): 83%
% stimulated control (caspase-3/7; [12]): 26%
Normalized data: Mean (caspase-3/7 activity/proteins) (caspase-3/7; [12]): 21632 AU/mg
effect on caspase-3/7 activity (in words) (caspase-3/7; [12]): clear inhibitory effect
Caspase-3/7 activity (Fluorescence 380 nm/440 nm) (caspase-3/7; [13]): 663 AU and 729 AU and 660 AU
Caspase-3/7 activity - Background (Fluorescence 380 nm/440 nm) (caspase-3/7; [13]): 324 AU and 400 AU and 320 AU
Caspese-3/7 activity/proteins (caspase-3/7; [13]): 15788 AU/mg and 15464 AU/mg and 19643 AU/mg
effect on caspase-3/7 activity (in words) (caspase-3/7; tested from 0.001 to 10 μg/ml, staurosporine-stimulated NHDF): no effect

CN[C@@H]1C[C@H]2O[C@@](C)([C@@H]1OC)n1c3ccccc3c3c4c(c5c6ccccc6n2c5c31)C(=O)NC4 [staurosporine]
increase of caspase-3/7 activity normalized versus protein quantity, staurosporine-stimulated versus non-stimulated conditions (caspase-3/7; staurosporine 100 nM, NHDF): 10 fold

Ac-DEVD-CHO
inhibition of staurosporine-stimulated caspase-3/7 activity (in words) (caspase-3/7; 0.1 μM, added in the reaction mix): fully inhibited
% inhibition (caspase-3/7; [14]): 109%
% stimulated control (caspase-3/7; [14]): 1%
Normalized data: Mean (caspase-3/7 activity/proteins) (caspase-3/7; [14]): 954 AU/mg
Caspase-3/7 activity (Fluorescence 380 nm/440 nm) (caspase-3/7; [15]): 347 AU and 343 AU and 339 AU
Caspase-3/7 activity - Background (Fluorescence 380 nm/440 nm) (caspase-3/7; [15]): 17 AU and 13 AU and 10 AU
Caspese-3/7 activity/proteins (caspase-3/7; [15]): 1254 AU/mg and 934 AU/mg and 674 AU/mg
